Source: ChEMBL document CHEMBL4699562, “Design, syntheses and evaluations of novel indole derivatives as orally selective estrogen receptor degraders (SERD)” (Bioorg Med Chem Lett, 2020)
Activity calls are given as the source filed them. The rule behind the calls is not given here.

Key:
[1] = biological target: T1, Estrogen receptor (Homo sapiens, UniProt P03372); assay: Induction of estrogen receptor degradation in human MCF7 cells; assay type: cell-based
T1 sequence (P03372 whole entry): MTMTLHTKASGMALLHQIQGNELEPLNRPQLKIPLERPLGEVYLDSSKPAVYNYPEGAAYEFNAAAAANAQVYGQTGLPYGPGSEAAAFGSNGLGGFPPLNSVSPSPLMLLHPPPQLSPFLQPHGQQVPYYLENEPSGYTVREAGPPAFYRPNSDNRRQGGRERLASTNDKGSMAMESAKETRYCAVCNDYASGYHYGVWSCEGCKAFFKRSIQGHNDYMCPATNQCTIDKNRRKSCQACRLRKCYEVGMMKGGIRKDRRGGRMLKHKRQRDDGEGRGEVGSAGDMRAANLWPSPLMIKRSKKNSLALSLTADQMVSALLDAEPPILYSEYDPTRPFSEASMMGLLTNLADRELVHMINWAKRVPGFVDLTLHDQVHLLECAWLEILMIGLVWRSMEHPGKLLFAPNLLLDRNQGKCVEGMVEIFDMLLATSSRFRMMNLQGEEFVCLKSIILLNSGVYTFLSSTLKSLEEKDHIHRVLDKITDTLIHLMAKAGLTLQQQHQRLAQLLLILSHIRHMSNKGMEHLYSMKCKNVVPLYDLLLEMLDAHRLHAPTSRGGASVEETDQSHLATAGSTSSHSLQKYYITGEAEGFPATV

[2] = test system: MCF7; assay: Antiproliferative activity against human MCF7 cells assessed as cell growth inhibition; assay type: functional, cell-based
[3] = biological target: T1, Estrogen receptor; assay: Binding affinity to estrogen receptor (unknown origin)
[4] = biological target: Voltage-gated inwardly rectifying potassium channel KCNH2 (Homo sapiens, UniProt Q12809); assay: Inhibition of human ERG by automatic Q-patch assay
Sequence of Voltage-gated inwardly rectifying potassium channel KCNH2 (Q12809 whole entry): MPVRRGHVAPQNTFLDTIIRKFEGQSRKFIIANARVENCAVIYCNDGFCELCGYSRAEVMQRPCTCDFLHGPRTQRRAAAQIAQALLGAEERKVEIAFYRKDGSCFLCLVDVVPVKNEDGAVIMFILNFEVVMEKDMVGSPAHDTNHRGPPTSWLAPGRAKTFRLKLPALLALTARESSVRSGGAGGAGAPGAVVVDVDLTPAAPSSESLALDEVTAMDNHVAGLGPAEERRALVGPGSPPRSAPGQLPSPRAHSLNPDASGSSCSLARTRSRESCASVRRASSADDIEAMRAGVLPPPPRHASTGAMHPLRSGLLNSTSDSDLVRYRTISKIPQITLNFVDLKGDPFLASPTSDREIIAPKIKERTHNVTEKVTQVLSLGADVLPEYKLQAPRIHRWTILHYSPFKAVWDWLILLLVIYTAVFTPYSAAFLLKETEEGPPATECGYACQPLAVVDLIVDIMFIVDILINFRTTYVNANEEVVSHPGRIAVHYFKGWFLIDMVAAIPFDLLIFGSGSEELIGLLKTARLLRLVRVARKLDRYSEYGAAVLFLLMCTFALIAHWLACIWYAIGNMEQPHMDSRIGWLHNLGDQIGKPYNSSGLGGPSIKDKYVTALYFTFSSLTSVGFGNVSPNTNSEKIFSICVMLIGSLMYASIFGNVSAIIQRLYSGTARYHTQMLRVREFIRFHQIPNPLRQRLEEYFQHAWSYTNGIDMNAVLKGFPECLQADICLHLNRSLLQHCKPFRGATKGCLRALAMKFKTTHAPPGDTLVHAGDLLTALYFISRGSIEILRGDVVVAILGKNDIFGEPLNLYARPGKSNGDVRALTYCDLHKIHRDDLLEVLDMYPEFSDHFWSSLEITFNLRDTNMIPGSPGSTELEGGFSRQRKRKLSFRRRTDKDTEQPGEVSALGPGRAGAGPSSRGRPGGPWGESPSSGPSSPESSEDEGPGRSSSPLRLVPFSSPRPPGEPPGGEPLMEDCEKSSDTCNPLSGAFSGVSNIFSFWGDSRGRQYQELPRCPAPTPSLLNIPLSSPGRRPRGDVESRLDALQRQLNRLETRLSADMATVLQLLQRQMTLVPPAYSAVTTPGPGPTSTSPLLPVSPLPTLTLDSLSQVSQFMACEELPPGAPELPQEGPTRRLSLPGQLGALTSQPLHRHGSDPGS

[5] = test system: MCF7; assay: Antitumor activity against human MCF7 cells expressing ER xenografted in BALB/c mouse assessed as tumor growth inhibition at 20 mg/kg, po qd administered for 21 days and measured on day 19 relative to control; assay type: functional; settings: 456 h, time 19 day, read-out: TGI
[6] = Volume of distribution in CD-1 mouse; assay type: ADME; settings: in vivo
[7] = Clearance in CD-1 mouse; assay type: ADME; settings: in vivo
[8] = AUC (0 to last) in CD-1 mouse at 2.5 mg/kg, po; assay type: ADME, organism-based; parameters: time 0 - last, route oral, dose 2.5 mg/kg; settings: in vivo
[9] = test system: MCF7; assay: Antitumor activity against human MCF7 cells expressing ER xenografted in BALB/c mouse assessed as tumor growth suppression at 20 mg/kg, po qd administered for 21 days; assay type: functional, organism-based; settings: time 21.0 day
[10] = Oral bioavailability in CD-1 mouse; assay type: ADME, organism-based; settings: in vivo

SMILES	IC50 [1] [nM]	IC50 [2] [nM]	IC50 [3] [nM]	also measured
CC/C(=C(/c1ccc(/C=C/C(=O)O)cc1)c1cc2ccccc2[nH]1)c1cc(Cl)ccc1Cl	25	71	1.4	
CC/C(=C(/c1ccc(/C=C/C(=O)O)cc1)c1cc2ccccc2[nH]1)c1ccc(Cl)cc1C#N	18	14	0.16	
CC/C(=C(/c1ccc(/C=C/C(=O)O)cc1)c1cc2ccccc2[nH]1)c1ccc(C(F)(F)F)cc1	163	139		
CC/C(=C(/c1ccc(/C=C/C(=O)O)cc1)c1cc2ccccc2[nH]1)c1ccc(C#N)cc1	723	278		
CC/C(=C(/c1ccc(/C=C/C(=O)O)cc1)c1cc2ccccc2[nH]1)c1ccc(F)cc1Cl	21	39	1.6	
CC/C(=C(/c1ccc(/C=C/C(=O)O)cc1)c1cc2ccccc2[nH]1)c1ccc(C(F)(F)F)cc1Cl	6	27	0.98	
C[C@@H]1Cc2c([nH]c3ccccc23)[C@@H](c2c(F)cc(/C=C/C(=O)O)cc2F)N1CC(C)(C)F [AZD-9496]		0.49		
CC/C(=C(/c1ccc(/C=C/C(=O)O)cc1)c1cc2ccccc2[nH]1)c1ccccc1Cl	29	42	0.44	
CC/C(=C(/c1ccc(/C=C/C(=O)O)cc1)c1cc2ccccc2[nH]1)c1cccc(F)c1C#N	49	40	0.17	
CC/C(=C(/c1ccc(/C=C/C(=O)O)cc1)c1cc2ccccc2[nH]1)c1ccc(C#N)cc1Cl	31	49	0.17	
CC/C(=C(/c1ccc(/C=C/C(=O)O)cc1)c1cc2ccccc2[nH]1)c1ccc(Cl)cc1Cl	9	11	1.52	
CC/C(=C(/c1ccc(/C=C/C(=O)O)cc1)c1cc2ccccc2[nH]1)c1ccccc1OC(F)(F)F	93	206	2.41	
CC/C(=C(/c1ccc(/C=C/C(=O)O)cc1)c1cc2ccccc2[nH]1)c1ccc(Cl)cc1C(F)(F)F	2	4	0.76	IC50 [4]: > 30000 nM; inhibition in vivo at 20 mg/kg [5]: 117%; Vd [6]: 1.6 L/kg; clearance [7]: 6.86 mL/min/kg; AUC(0-t) [8]: 6.36 µM·h; inhibition [9]: Active; bioavailability [10]: 52.4%
CC/C(=C(/c1ccc(/C=C/C(=O)O)cc1)c1cc2ccccc2[nH]1)c1ccccc1C(F)(F)F	4	8	0.87	inhibition (INH) ([4]; human): Active; inhibition in vivo at 20 mg/kg [5]: 112%; Vd [6]: 1.12 L/kg; clearance [7]: 5.54 mL/min/kg; AUC(0-t) [8]: 4.21 µM·h; inhibition [9]: Active; bioavailability [10]: 25.7%
CC/C(=C(/c1ccc(/C=C/C(=O)O)cc1)c1cc2ccccc2[nH]1)c1ccc(Cl)c(C(F)(F)F)c1	2450	2200		
CC/C(=C(/c1ccc(/C=C/C(=O)O)cc1)c1cc2ccccc2[nH]1)c1cccc(Cl)c1Cl	495	898	3.18	

More lines, main results first:

IC50 [1] [nM]	IC50 [2] [nM]	IC50 [3] [nM]	SMILES	also measured
9	33	0.17	CC/C(=C(/c1ccc(/C=C/C(=O)O)cc1)c1cc2ccccc2[nH]1)c1ccccc1C	
1390	840		CC/C(=C(/c1ccc(/C=C/C(=O)O)cc1)c1cc2ccccc2[nH]1)c1ccc(Cl)c(C)c1	
69	140	1.46	CC/C(=C(/c1ccc(/C=C/C(=O)O)cc1)c1cc2ccccc2[nH]1)c1cccc(C)c1	
9	9	0.24	CC/C(=C(/c1ccc(/C=C/C(=O)O)cc1)c1cc2ccccc2[nH]1)c1ccccc1C#N	
42	30		CC/C(=C(/c1ccc(/C=C/C(=O)O)cc1)c1cc2ccccc2[nH]1)c1c(C)cccc1Cl	
30	61	0.22	CC/C(=C(/c1ccc(/C=C/C(=O)O)cc1)c1cc2ccccc2[nH]1)c1ccc(OC)cc1	
131	325	1.75	CC/C(=C(/c1ccc(/C=C/C(=O)O)cc1)c1cc2ccccc2[nH]1)c1cccc(C(F)(F)F)c1	
68	282	4.71	CC/C(=C(/c1ccc(/C=C/C(=O)O)cc1)c1cc2ccccc2[nH]1)c1cccc(OC(F)(F)F)c1	
271	343	1.74	CC/C(=C(/c1ccc(/C=C/C(=O)O)cc1)c1cc2ccccc2[nH]1)c1ccc(Cl)cc1	
66.6	108	0.28	CC/C(=C(/c1ccc(/C=C/C(=O)O)cc1)c1cc2ccccc2[nH]1)c1ccccc1	
